Measurements taken from publication PMC4295030, “Synthesis and molecular docking of novel non-competitive antagonists of GluK2 receptor” (Medicinal Chemistry Research, 2014).

System: T1, GluK2 receptor
T1 construct: gene GRIK2
Assay: aequorin luminescence Ca2+ influx assay in HEK293 cells
Type: cell-based
Conditions: 275 μM glutamate as agonist, Ringer buffer + 100 mM CaCl2
Text: aequorin luminescence Ca2+ influx assay in HEK293 cells on GluK2 receptor

Work on COc1ccc2c(c1)c(C)c(-c1cccs1)n2C [compound 3, 5-methoxy-1,3-dimethyl-2-(2-thienyl)indole] yielded an IC50 (non-competitive) of 12 µM.
With O=C1CCCc2c1c1ccccc1n2Cc1ccc(Cl)cc1 [compound 7, 9-(4-chlorobenzyl)-4-oxo-1,2,3,4-tetrahydrocarbazole] the “GluK2 inhibition at 100 µM, %” value was 22%.
